Source: BindingDB's records for doi:10.1128/aac.40.5.1304 (Merck Research Laboratories, 1996)

Biological target: Polymerase acidic protein (Influenza A virus (strain A/Puerto Rico/8/1934 H1N1), UniProt P03433)
Test: Inhibition of Influenza replication

Row | Compound | IC50 [nM]
1 | O=C(O)C(=O)CC(=O)C1(Cc2ccc(Cl)cc2)CCN(Cc2ccc(Cl)cc2)CC1 | 180
2 | O=C(O)C(=O)CC(=O)C1(Cc2ccc(Cl)cc2)CCCN(Cc2ccccc2)C1 (configuration not stated) | 1600
